# Tested on: S. aureus
# Experiment: MIC assay according to CLSI criteria, Example 2, S. aureus strains
# Assay type: cell-based, Staphylococcus aureus
# Conditions: Staphylococcus aureus
# Description: Chosen for its relevance regarding bacterial skin infections, the methicillin-resistant S. aureus (MRSA) 01 strain was used as the primary test microorganism. This strain is a community-acquired MRSA clinical isolate of USA 300 type, from a skin abscess.
# Two-hundred-four other MRSA and methicillin-sensitive S. aureus strains, and 4 Streptococcus pyogenes strains, were also included in the study. These covered fusidic acid- and mupirocin-resistant strains, these two types of resistance being of clinical relevance.
# Strains were conserved in Luria Bertani (LB) Broth (S. aureus) or Brain Heart Infusion (BHI) (S. pyogenes) supplemented with glycerol 15% (v/v) at −80° C., and reactivated by isolation on LB (S. aureus) or BHI (S. pyogenes) agar plates. Strains were cultivated in Mueller Hinton (MH) Broth-cation adjusted (S. aureus) or BHI (S. pyogenes). All strains were cultivated aerobically (microaerobically for S. pyogenes strains) at 37° C.
# Bacterial cultures were stopped in their exponential growth phase and plates were inoculated with the approximate concentration of 5×10^5 cells per well. Plates were incubated at 37° C. for 18 hours (S. aureus) or 24 hours (S. pyogenes). Optical density at a wavelength of 600 nm was measured at the end of the incubation time.
smiles,measurement,setting,value
"CN[C@H](CC(C)C)C(=O)N[C@H]1C(=O)N[C@@H](CC(N)=O)C(=O)N[C@H]2C(=O)N[C@H]3C(=O)N[C@H](C(=O)N[C@H](C(=O)O)c4cc(O)cc(O)c4-c4cc3ccc4O)[C@H](O)c3ccc(c(Cl)c3)Oc3cc2cc(c3O[C@@H]2O[C@H](CO)[C@@H](O)[C@H](O)[C@H]2O[C@H]2C[C@](C)(N)[C@H](O)[C@H](C)O2)Oc2ccc(cc2Cl)[C@H]1O [Vancomycin, vancomycin]",MIC,"MRSA, strain MRSA 102",2 µg/mL
same,MIC,"MRSA, strain MRSA 103",1 µg/mL
same,MIC,"MRSA, strain MRSA 104",1 µg/mL
same,MIC,"MRSA, strain MRSA 105",1 µg/mL
same,MIC,"MRSA, strain MRSA 106",1 µg/mL
same,MIC,"MRSA, strain MRSA 107",2 µg/mL
same,MIC,"MRSA, strain MRSA 108",1 µg/mL
same,MIC,"MRSA, strain MRSA 109",1 µg/mL
same,MIC,"MRSA, strain MRSA 110",1 µg/mL
same,MIC,"MRSA, strain MRSA 111",1 µg/mL
same,MIC,"MRSA, strain MRSA 112",1 µg/mL
same,MIC,"MRSA, strain MRSA 113",1 µg/mL
same,MIC,"MSSA, strain MSSA 01",1 µg/mL
same,MIC,"MSSA, strain MSSA 02",1 µg/mL
same,MIC,"NEWMAN, strain Newman",2 µg/mL
same,MIC,strain 9-1862936,1 µg/mL
same,MIC,strain 9-2625962,1 µg/mL
same,MIC,strain 9-2642158,1 µg/mL
same,MIC,strain 9-2955245,1 µg/mL
same,MIC,strain 9-26422166,1 µg/mL
same,MIC,strain 000040C,1 µg/mL
same,MIC,strain 000041C,1 µg/mL
same,MIC,strain 000274T,1 µg/mL
same,MIC,strain 114660U,1 µg/mL
same,MIC,strain 115015T,2 µg/mL
same,MIC,strain 115242C,1 µg/mL
same,MIC,strain 115263C,2 µg/mL
same,MIC,strain 115268C,1 µg/mL
same,MIC,strain 115273C,1 µg/mL
same,MIC,strain 115295C,1 µg/mL
same,MIC,strain 115303C,1 µg/mL
same,MIC,strain 115370U,1 µg/mL
same,MIC,strain 115427C,1 µg/mL
same,MIC,strain 115445C,1 µg/mL
same,MIC,strain 115561C,1 µg/mL
same,MIC,strain 115584D,2 µg/mL
same,MIC,strain 115628T,2 µg/mL
same,MIC,strain 115690C,2 µg/mL
same,MIC,strain 115691T,1 µg/mL
same,MIC,strain 115740E,1 µg/mL
same,MIC,strain 115810E,1 µg/mL
same,MIC,strain 115903T,1 µg/mL
same,MIC,strain 116122T,1 µg/mL
same,MIC,strain E5-1029252,1 µg/mL
same,MIC,strain E5-1029558,1 µg/mL
same,MIC,strain E5-1030440,1 µg/mL
same,MIC,strain E5-1030469,2 µg/mL
same,MIC,strain E5-1030472,1 µg/mL
same,MIC,strain E5-1030482,1 µg/mL
same,MIC,"strain E5-1033076 (first listing, r204)",1 µg/mL
same,MIC,"strain E5-1033076 (second listing, r205)",1 µg/mL
same,MIC,strain E5-1033088,1 µg/mL
same,MIC,strain E5-1033091,1 µg/mL
same,MIC,strain E5-1035277,1 µg/mL
same,MIC,strain E5-1035284,1 µg/mL
same,MIC,strain E5-1035775,1 µg/mL
same,MIC,strain E5-1035779,1 µg/mL
same,MIC,strain E5-1037958,1 µg/mL
same,MIC,strain E5-1037971,1 µg/mL
same,MIC,strain E5-1038279,1 µg/mL
same,MIC,strain E5-1038286,1 µg/mL
same,MIC,strain E5-1038294,1 µg/mL
same,MIC,strain E5-1039684,1 µg/mL
same,MIC,strain E5-1039697,1 µg/mL
same,MIC,strain E5-1041977,2 µg/mL
same,MIC,strain E5-1041979,1 µg/mL
same,MIC,strain E5-1041980,1 µg/mL
same,MIC,strain E5-1041987,1 µg/mL
same,MIC,strain E5-1043184,1 µg/mL
same,MIC,strain E5-1043668,1 µg/mL
same,MIC,strain E5-1045179,1 µg/mL
same,MIC,strain E5-1046019,1 µg/mL
same,MIC,strain E5-1046020,1 µg/mL
same,MIC,strain E5-1046039,1 µg/mL
same,MIC,strain E5-1046070,1 µg/mL
same,MIC,strain E5-1046074,1 µg/mL
same,MIC,strain E5-1046085,2 µg/mL
same,MIC,strain E5-1046096,1 µg/mL
same,MIC,strain E5-1046296,1 µg/mL
same,MIC,strain E5-1046297,1 µg/mL
same,MIC,strain E5-1046298,1 µg/mL
same,MIC,strain E5-1046723,2 µg/mL
same,MIC,strain E5-1047585,1 µg/mL
same,MIC,strain E5-1047606,1 µg/mL
same,MIC,strain E5-1047924,1 µg/mL
same,MIC,strain E5-1048204,2 µg/mL
same,MIC,strain E5-1048428,1 µg/mL
same,MIC,strain E5-1048654,1 µg/mL
same,MIC,strain E5-1048670,2 µg/mL
same,MIC,strain EEFIC 01,1 µg/mL
same,MIC,strain EEFIC 02,1 µg/mL
same,MIC,strain K000772,1 µg/mL
same,MIC,strain K000796,1 µg/mL
same,MIC,strain K000863,1 µg/mL
same,MIC,strain K000864,1 µg/mL
same,MIC,strain K000866,1 µg/mL
same,MIC,strain K115498,2 µg/mL
same,MIC,strain K115688,2 µg/mL
same,MIC,strain K115689,2 µg/mL
same,MIC,strain R000019,2 µg/mL
same,MIC,strain R000020,1 µg/mL
same,MIC,strain R000024,1 µg/mL
same,MIC,strain U115579,1 µg/mL
